Consider 27 compounds from PubChem BioAssay (NCI).

Holding throughout (test): NCI anticancer screen, dose series, 48 h
Assay [1] relates to 786-0 renal.
The subject of assay [2] is HCC-2998 colon.
The test system of assay [3] is HOP-92 NSCLC.
Assay [4] has as its system HS 578T breast.
Assay [5] concerns MALME-3M melanoma.
Assay [6] relates to MDA-MB-435.
Assay [7] deals with NCI/ADR-RES ovarian.
The subject of assay [8] is OVCAR-3 ovarian.
For assay [9], the system named is OVCAR-4 ovarian.
Assay [10] relates to OVCAR-8 ovarian.

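Interpolation was linear, between the two tested concentrations surrounding the appropriate level; five concentrations were tested over 48 hours in 96-well plates. TGI: total growth inhibition.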

Consider `Cc1[nH]c(=O)nc(NCCNCCO)c1C(=O)Nc1cccc2cc3ccccc3cc12`, for which the TGI in assay [1], in assay [2], in assay [3], in assay [4], in assay [5] and in assay [6] was more than 100 µM each time. In addition, the TGI in [7], in assay [8], in assay [9] and in [10] was more than 100 µM throughout.
For the compound `CC1=NN(c2nc(N)nc(-c3sccc3N)n2)C(C)(C)C1`, the TGI in [1], in assay [2], in assay [3], in [4], in assay [5] and in assay [6] was more than 100 µM in each case. For the same compound, the TGI in assay [7], in [8], in [9] and in assay [10] was more than 100 µM each time.
Take `O=[N+]([O-])c1ccc(NC(=S)N=Nc2c(O)[nH]c3ccc([N+](=O)[O-])cc23)cc1`: the TGI was 32.3 µM in assay [1]; 35.9 µM in assay [2]; 35.2 µM in assay [3]; more than 100 µM in assay [4]; 55.5 µM in assay [5]; 38.7 µM in assay [6]. In addition, the TGI in assay [7] was 48.6 µM; in assay [8] it was 47.5 µM; in assay [9], 40.8 µM; in assay [10], more than 100 µM.
For the compound `COc1ccccc1C1Nn2c(nc3ccccc3c2=O)N1c1ccc(C)cc1` (stereo not given), the TGI in assay [1] is 8.37 µM; in [2] it was 17.5 µM; in [3], 23.1 µM; in [4], 27.9 µM; in assay [5] it was 38.7 µM; in [6] it was 22.7 µM. Further, the TGI came to 23.6 µM in assay [7], 18.6 µM in assay [8], 11.9 µM in assay [9] and 17 µM in assay [10].
`Cc1cc2c(O)c(c1)CN(CC(=O)O)Cc1cc(C)cc(c1O)CN(CC(=O)O)Cc1cc(C)cc(c1O)CN(CC(=O)O)C2`: the TGI in assay [1], in assay [2], in assay [3], in assay [4], in assay [5] and in assay [6] was more than 100 µM throughout. Moreover, the TGI in assay [7], in assay [8], in [9] and in assay [10] was more than 100 µM throughout.
Turning to `CS(=O)(=O)Nc1ccc2c(c1)N(S(C)(=O)=O)CC2CCl` (stereo not given), the TGI in assay [1], in assay [2], in assay [3], in [4], in assay [5] and in assay [6] was more than 100 µM each time. Moreover, the TGI in assay [7], in [8], in assay [9] and in [10] was more than 100 µM each time.
For the compound `Cc1cc(S(=O)(=O)Nc2n[nH]c(-c3ccccn3)n2)c(S)cc1Cl`, the TGI in assay [1] was found to be 72.7 µM; in assay [2] it was 30.2 µM; in assay [3] it was 64.1 µM; in [4] it was 86.6 µM; in assay [5], 60.3 µM; in [6], 70.6 µM. For the same compound, the TGI came to 35.3 µM in [7], 64.3 µM in assay [8], 65.5 µM in assay [9] and 30.4 µM in [10].
As for `CC(C)C(=O)C(C)(C)CCc1ccccn1`, the TGI in assay [1], in assay [2], in assay [3], in [4], in assay [5] and in assay [6] was more than 100 µM throughout. In addition, the TGI in assay [7], in assay [8], in assay [9] and in assay [10] was more than 100 µM each time.
Turning to `C/C=C(/C)C(=O)OC1CC(C)[C@H]2CC(=O)C(C)=C2CC1C(C)(C)OC(C)=O` (stereo not given in full), the TGI in [1] is more than 100 µM; in assay [2], 72.1 µM; in [3], 78 µM; in assay [4] it was more than 100 µM; in [5] it was 54 µM; in assay [6], 68.6 µM. Further, the TGI was 71.7 µM in [7], 45.4 µM in assay [8], 68 µM in assay [9] and more than 100 µM in [10].
Consider `O=S(=O)(c1cc(Cl)ccc1Cl)n1ccnc1`, for which the TGI in assay [1] is more than 100 µM; in assay [2] it was 42.4 µM; in assay [3], more than 100 µM; in assay [4], more than 100 µM; in [5], more than 100 µM; in assay [6], 37 µM. Also, the TGI in [7] is 45.7 µM; in assay [8], more than 100 µM; in [9], more than 100 µM; in assay [10], more than 100 µM.
As for `CSc1nc(NC(C)C)c2c(n1)Sc1nc3ccccc3n1N=C2`, the TGI in assay [1] was determined as 16.7 µM; in assay [2] it was 25.3 µM; in [3], 31.2 µM; in [4], 54.5 µM; in assay [5], 38 µM; in [6], 70.3 µM. Moreover, the TGI amounted to 46.7 µM in assay [7], 25.1 µM in [8], 22.5 µM in assay [9] and 28.8 µM in [10].
With `Cn1c(=O)c(-c2ccccc2)c(O)c2ccccc21`, the TGI in assay [1], in [2], in assay [3], in assay [4], in assay [5] and in [6] was more than 100 µM in each case. Further, the TGI in assay [7], in [8], in [9] and in assay [10] was more than 100 µM throughout.
For the compound `Nc1nc(Cl)cc(NCC2(O)CC2)n1`, the TGI in assay [1], in assay [2], in assay [3], in assay [4], in [5] and in assay [6] was more than 100 µM each time. Also, the TGI in assay [7], in assay [8], in [9] and in assay [10] was more than 100 µM in each case.
With `O=C1C=CC(=O)c2c(O)c(N3CCC[C@H]3CO)c(Cl)c(O)c21`, the TGI in assay [1] is 3.64 µM; in assay [2], more than 6.61 µM; in assay [3], 3.13 µM; in [4], more than 8.27 µM; in assay [5] it was 3.21 µM; in assay [6], 3.45 µM. Moreover, the TGI in assay [7] is 4.06 µM; in assay [8], more than 7.45 µM; in [9], 3.93 µM; in assay [10], more than 6.11 µM.
Consider `NC(=O)c1csc(C2(O)COC(CO)C2O)n1` (stereo not given), for which the TGI in assay [1], in assay [2], in assay [3], in assay [4], in assay [5] and in assay [6] was more than 100 µM each time. Moreover, the TGI in assay [7], in [8], in assay [9] and in [10] was more than 100 µM in each case.
For `C=C1N(C=O)C(C)(C)N(O)C1(C)C`, the TGI in assay [1], in assay [2], in assay [3], in [4], in assay [5] and in [6] was more than 100 µM throughout. Also, the TGI in [7], in assay [8], in [9] and in assay [10] was more than 100 µM each time.
For the compound `CN(C)CC1CCC/C(=C\c2ccc(OC(=O)c3ccc(Cl)cc3)cc2)C1=O` (stereo not given), the TGI in [1] was 2.3 µM; in assay [2] it was more than 29 µM; in assay [3], 4.75 µM; in assay [4], 10.3 µM; in assay [5] it was 6.8 µM; in assay [6] it was 4.01 µM. In addition, the TGI in assay [7] stood at 4.99 µM; in assay [8] it was 3.36 µM; in [9], 8.94 µM; in [10], 3.23 µM.
With `COc1cc(C(=O)Oc2ccc3c(c2)OCO3)cc(OC)c1OC`, the TGI in [1], in assay [2], in [3], in assay [4], in assay [5] and in [6] was more than 100 µM each time. The TGI in [7], in assay [8], in assay [9] and in assay [10] was more than 100 µM each time.
As to `O=C(/C=C/C(=O)N1CCCC1)N1CCCC1`, the TGI in assay [1], in [2], in [3], in [4], in assay [5] and in assay [6] was more than 100 µM throughout. The TGI in assay [7], in [8], in assay [9] and in [10] was more than 100 µM throughout.
For `COc1ccc(/C=c2\s/c(=C3/SC(=S)N(c4ccccc4)C3=O)n(-c3ccccc3)c2=O)cc1`, the TGI in [1] was more than 100 µM; in assay [2], more than 100 µM; in [3], more than 100 µM; in assay [4], 74 µM; in assay [5] it was more than 100 µM; in [6] it was more than 100 µM. Moreover, the TGI in [7], in [8], in [9] and in [10] was more than 100 µM throughout.
Regarding `CCn1c2ccc(C(=O)CCCN3CCCCC3)cc2c2cc(C(=O)CCCN3CCCCC3)ccc21`, the TGI in assay [1] was determined as 2.78 µM; in [2] it was 23.8 µM; in assay [3], 30.3 µM; in assay [4], 7.06 µM; in assay [5], 18.5 µM; in assay [6], 3.3 µM. In addition, the TGI was 13.1 µM in assay [7], 5.3 µM in assay [8], 5.65 µM in [9] and 6.6 µM in [10].
On to `CCC(O)(Cc1ccc(OC)cc1)c1ccc(OC)cc1` (stereo not given), for which the TGI in assay [1], in assay [2], in assay [3], in assay [4], in assay [5] and in assay [6] was more than 100 µM each time. Further, the TGI in assay [7], in assay [8], in assay [9] and in assay [10] was more than 100 µM throughout.
Consider `CCCCSc1nsc(N(C(=O)c2ccccc2)C(=O)c2ccccc2)n1`, for which the TGI in [1] is more than 100 µM; in assay [2], 74.4 µM; in assay [3] it was 75 µM; in [4] it was 89.7 µM; in assay [5], 71.1 µM; in assay [6], more than 100 µM. The TGI was more than 100 µM in assay [7], 61.1 µM in [8], more than 100 µM in [9] and more than 100 µM in assay [10].
For `O=c1[nH]c2nc3ccccc3nc2[nH]c1=O`, the TGI in assay [1], in assay [2], in assay [3], in [4], in assay [5] and in assay [6] was more than 100 µM throughout. Moreover, the TGI in [7], in assay [8], in [9] and in assay [10] was more than 100 µM in each case.
For the compound `Cc1ccc2c(c1)-c1c(C#N)c(N)nc(-c3ccc(Cl)cc3)c1CCS2(=O)=O`, the TGI in [1] was more than 100 µM; in assay [2], more than 100 µM; in assay [3], more than 100 µM; in assay [4], 64.6 µM; in [5], more than 100 µM; in assay [6], more than 79.2 µM. Also, the TGI in [7] was 98.2 µM; in [8], 44.4 µM; in assay [9], more than 100 µM; in [10], more than 100 µM.
Regarding `Cc1cc2ncn(C3CCCCO3)c2cc1C` (stereo not given), the TGI in assay [1], in [2], in assay [3], in assay [4], in assay [5] and in assay [6] was more than 100 µM throughout. Also, the TGI in assay [7], in [8], in assay [9] and in [10] was more than 100 µM each time.
Turning to `C=C1OC(c2ccccc2NC)=NC12CCCCC2`, the TGI in assay [1], in assay [2], in [3], in [4], in [5] and in [6] was more than 100 µM in each case. Besides, the TGI in assay [7], in [8], in [9] and in assay [10] was more than 100 µM each time.
